Experimental data published in patent US5733924A, “DC 107 derivatives and treatment methods” (Kyowa Hakko Kogyo Co., Ltd., priority 1995, dated 1998).
≈ marks a conversion by molar mass, not a printed value. Read-outs that look alike come from different tables or passages of the source.

Legend:
[1] = tested on: Enterococcus faecium ATCC 10541; assay: Antibacterial activity, agar dilution method (MIC); format: cell-based
Description: (§1) The antibacterial activity as determined by the agar dilution method using a medium prepared by dissolving 3 g of Bacto-Tryptone (a product of Difco Laboratories), 3 g of a meat extract, 1 g of an yeast extract, 1 g of glucose and 16 g of agar in one liter of water (pH 7).
EF: Enterococcus faecium ATCC 10541

[2] = tested on: Staphylococcus aureus ATCC 6538P; assay: Antibacterial activity, agar dilution method (MIC); format: cell-based; details: ATCC6538P
Description: as §1
SA: Staphylococcus aureus ATCC 6538P

[3] = tested on: Bacillus subtilis No. 10707; assay: Antibacterial activity, agar dilution method (MIC); format: cell-based
Description: as §1
BS: Bacillus subtilis No. 10707

[4] = tested on: Klebsiella pneumoniae ATCC 10031; assay: Antibacterial activity, agar dilution method (MIC); format: cell-based
Description: as §1
KP: Klebsiella pneumoniae ATCC 10031

Escherichia coli ATCC 26 = assay: Antibacterial activity, agar dilution method (MIC); format: cell-based
Description: as §1
EC: Escherichia coli ATCC 26

P388 Leukemia = assay: Antitumor activity against P388 leukemia in mice (increased life span); format: in vivo, CDF1 mice; details: Mus musculus, P388, ip, 720 h, read-out: ILS (increased life span)
Experimental: Ascites were collected from the abdominal cavity of P388 ascites tumor-bearing cancer mice (DBA/2) on the 7th day after transplantation. A number of P388 cells in the ascites was counted, and a tumor cell floating liquid of 5×10^6 cells/ml was prepared using a physiological saline solution. Then, 0.2 ml of the solution containing 1×10^6 cells was transplanted into the abdominal cavity of CDF1 mice having a body weight of from 20 to 25 g.
The effect of the test compound was determined in terms of the ratio of average survival days of the group administered with the test compound to average survival days of the control group (non-medicated group) (i.e., an increased life span, ILS%).

[5] = Enterococcus faecium, ATCC10541, pH 7, read-out: MIC (minimum growth inhibitory concentration), EF: Enterococcus faecium ATCC 10541
[6] = Staphylococcus aureus, pH 7, read-out: MIC (minimum growth inhibitory concentration)
[7] = Bacillus subtilis, NO.10707, pH 7, read-out: MIC (minimum growth inhibitory concentration), BS: Bacillus subtilis No. 10707
[8] = Klebsiella pneumoniae, ATCC10031, pH 7, read-out: MIC (minimum growth inhibitory concentration)
[9] = ATCC10541, EF: Enterococcus faecium ATCC 10541, pH 7, read-out: MIC (minimum growth inhibitory concentration)
[10] = SA: Staphylococcus aureus ATCC 6538P, agar dilution, pH 7, read-out: MIC (minimum growth inhibitory concentration)
[11] = BS: Bacillus subtilis No. 10707, pH 7, read-out: MIC (minimum growth inhibitory concentration)
[12] = ATCC10031, KP: Klebsiella pneumoniae ATCC 10031, agar dilution, pH 7, read-out: MIC (minimum growth inhibitory concentration)
[13] = ATCC26, EC: Escherichia coli ATCC 26, pH 7, read-out: MIC (minimum growth inhibitory concentration)
[14] = 2.0 mg/kg, single i.p. 24 hours after transplantation, CDF1 mice, 30 days observation
[15] = Escherichia coli, ATCC26, pH 7, read-out: MIC (minimum growth inhibitory concentration), EC: Escherichia coli ATCC 26
[16] = single i.p. 24 hours after transplantation, CDF1 mice, 30 days observation

SMILES	MIC [1, 5] [mg/L]	MIC [2, 6] [mg/L]	MIC [3, 7] [mg/L]	MIC [4, 8] [mg/L]	MIC (minimum growth inhibitory concentration) (Escherichia coli ATCC 26; EC: Escherichia coli ATCC 26, pH 7) [mg/L]	ILS at 2 mg/kg (P388 Leukemia) [%]	MIC [1, 9] [mg/L]	MIC [2, 10] [mg/L]	MIC [3, 11] [mg/L]	MIC [4, 12] [mg/L]	MIC (Escherichia coli ATCC 26; [13]) [mg/L]	ILS at 2 mg/kg (P388 Leukemia; [14]) [%]	ILS at 4 mg/kg (P388 Leukemia) [%]	MIC (Escherichia coli ATCC 26; [15]) [mg/L]	ILS at 8 mg/kg (P388 Leukemia; [16]) [%]
C/C1=C\C(OC2CCCCO2)C(=O)/C=C/C=C\c2csc(n2)C(C)N2C(=O)CC(C(C)(O)C(=O)SCc3oc(=O)oc3C)(CC1)[S+]2[O-] (single isomer, unassigned) [Compound 63]	0.65 (≈ 0.92 µM)	0.65 (≈ 0.92 µM)	0.081 (≈ 0.115 µM)	5.2 (≈ 7.36 µM)	21 (≈ 29.7 µM)	48									
CCC(=O)OC1/C=C(\C)CCC2(CC(=O)NC(C)c3nc(cs3)/C=C\C=C\C1=O)[S+]([O-])SC(=O)C2(C)O (stereo not shown) [Compound 2]							0.081 (≈ 0.143 µM)	0.041 (≈ 0.0723 µM)	0.33 (≈ 0.582 µM)	0.65 (≈ 1.15 µM)	1.3 (≈ 2.29 µM)	42			
C/C1=C\C(OC(=O)C2CCCCC2)C(=O)/C=C/C=C\c2csc(n2)C(C)NC(=O)CC2(CC1)[S+]([O-])SC(=O)C2(C)O (stereo not shown) [Compound 6]							0.91 (≈ 1.47 µM)	0.91 (≈ 1.47 µM)	0.028 (≈ 0.0451 µM)	7.3 (≈ 11.8 µM)	3.7 (≈ 5.96 µM)		49		
C/C1=C\C(OC(=O)c2cnc3ccccc3n2)C(=O)/C=C/C=C\c2csc(n2)C(C)N2C(=O)CC(C(C)(O)C(=O)SCc3oc(=O)oc3C)(CC1)[S+]2[O-] (stereo not shown) [Compound 52]	0.72 (≈ 0.924 µM)	0.72 (≈ 0.924 µM)	2.9 (≈ 3.72 µM)	23 (≈ 29.5 µM)										92 (≈ 118 µM)	
COCOC1/C=C(\C)CCC2(C(C)(O)C(=O)SCc3oc(=O)oc3C)CC(=O)N(C(C)c3nc(cs3)/C=C\C=C\C1=O)[S+]2[O-] (stereo not shown) [Compound 58]							0.72 (≈ 1.08 µM)	0.72 (≈ 1.08 µM)	0.72 (≈ 1.08 µM)	2.9 (≈ 4.35 µM)	46 (≈ 69 µM)				
CCOCOC1/C=C(\C)CCC2(C(C)(O)C(=O)SCc3oc(=O)oc3C)CC(=O)N(C(C)c3nc(cs3)/C=C\C=C\C1=O)[S+]2[O-] (stereo not shown) [Compound 59]							1.3 (≈ 1.91 µM)	1.3 (≈ 1.91 µM)	0.65 (≈ 0.955 µM)	5.2 (≈ 7.64 µM)	21 (≈ 30.8 µM)	47			
C/C1=C\C(O)C(=NOCc2ccccc2)/C=C/C=C\c2csc(n2)C(C)NC(=O)CC2(CC1)[S+]([O-])SC(=O)C2(C)O (stereo not shown) [Compound 69]							0.028 (≈ 0.0455 µM)	0.057 (≈ 0.0926 µM)	0.028 (≈ 0.0455 µM)	0.23 (≈ 0.373 µM)	1.8 (≈ 2.92 µM)				
CCOC(C)OC1/C=C(\C)CCC2(C(C)(O)C(=O)SCc3oc(=O)oc3C)CC(=O)N(C(C)c3nc(cs3)/C=C\C=C\C1=O)[S+]2[O-] (stereo not shown) [Compound 87]							54 (≈ 77.7 µM)	0.85 (≈ 1.22 µM)	0.11 (≈ 0.158 µM)	1.7 (≈ 2.45 µM)	6.8 (≈ 9.79 µM)				
COC1(OC2/C=C(\C)CCC3(CC(=O)NC(C)c4nc(cs4)/C=C\C=C\C2=O)[S+]([O-])SC(=O)C3(C)O)CCOCC1 (stereo not shown) [Compound 90]							0.041 (≈ 0.0656 µM)	0.041 (≈ 0.0656 µM)	0.02 (≈ 0.032 µM)	0.16 (≈ 0.256 µM)	0.65 (≈ 1.04 µM)				
C/C1=C\C(OC(=O)CNC(=O)OCc2ccccc2)C(=O)/C=C/C=C\c2csc(n2)C(C)NC(=O)CC2(CC1)[S+]([O-])SC(=O)C2(C)O (stereo not shown) [Compound 97]							0.041 (≈ 0.0584 µM)	0.041 (≈ 0.0584 µM)	0.33 (≈ 0.47 µM)	0.81 (≈ 1.15 µM)	0.65 (≈ 0.926 µM)				54
C/C1=C\C(OC(=O)CNC=O)C(=O)/C=C/C=C\c2csc(n2)C(C)NC(=O)CC2(CC1)[S+]([O-])SC(=O)C2(C)O (stereo not shown) [Compound 99]							0.041 (≈ 0.0688 µM)	0.041 (≈ 0.0688 µM)	0.041 (≈ 0.0688 µM)	0.041 (≈ 0.0688 µM)	2.6 (≈ 4.36 µM)				56
CC(=O)NCC(=O)OC1/C=C(\C)CCC2(CC(=O)NC(C)c3nc(cs3)/C=C\C=C\C1=O)[S+]([O-])SC(=O)C2(C)O (stereo not shown) [Compound 100]	0.041 (≈ 0.0672 µM)	0.041 (≈ 0.0672 µM)	0.081 (≈ 0.133 µM)	0.041 (≈ 0.0672 µM)									66	2.6 (≈ 4.26 µM)	
